Results reported in ChEMBL document CHEMBL1125884, “Synthesis and biochemical studies of 16- or 19-substituted androst-4-enes as aromatase inhibitors” (J Med Chem, 1991).
pIC50, pKi: −log10 of the molar value.

Columns and labels:
Aromatase [1] = target: T1, Aromatase (Homo sapiens, UniProt P11511)
T1 sequence (P11511 whole entry): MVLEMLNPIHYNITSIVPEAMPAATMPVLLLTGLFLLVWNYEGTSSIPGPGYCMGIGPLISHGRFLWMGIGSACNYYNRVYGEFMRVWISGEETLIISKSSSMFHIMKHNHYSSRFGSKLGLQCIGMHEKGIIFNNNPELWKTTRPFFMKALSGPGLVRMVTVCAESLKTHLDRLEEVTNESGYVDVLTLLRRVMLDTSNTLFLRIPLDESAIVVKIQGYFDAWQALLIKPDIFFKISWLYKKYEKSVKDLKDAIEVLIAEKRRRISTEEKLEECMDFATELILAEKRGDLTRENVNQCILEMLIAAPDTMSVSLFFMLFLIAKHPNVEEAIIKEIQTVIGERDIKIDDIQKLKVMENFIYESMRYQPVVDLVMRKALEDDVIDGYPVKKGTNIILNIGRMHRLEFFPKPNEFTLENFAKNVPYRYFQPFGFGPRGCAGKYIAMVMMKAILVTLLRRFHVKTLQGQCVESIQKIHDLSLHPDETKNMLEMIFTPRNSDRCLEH
Description: Inhibition of 1 uM [1-beta-3H]-androstenedione binding to human placental microsome Cytochrome P450 19A1

Aromatase [2] = target: T1, Aromatase; assay: Binding affinity for human placental microsome cytochrome P450 19A1 with 1 uM [1-beta-3H]-androstenedione

Q: `C[C@]12CC[C@H]3[C@@H](CCC4=CCCC[C@@]43CO)[C@@H]1CCC2=O` was tested. Which pIC50 (Aromatase [1]) did it give?
A: 6.57

Q: What about the pKi (Aromatase [2]) of the same compound?
A: 7.89

Q: `CC12CCC3C(CCC4=CCCCC43C(F)F)C1CCC2=O` (centres undefined) was tested. Which pIC50 (Aromatase [1]) did it give?
A: 5.92

Q: What about the pKi (Aromatase [2]) of the same compound?
A: 6.35

Q: Which results are given for `CC12CCC3C(CCC4=CCCCC43CO)C1CCC2O` (centres undefined)?
A: pIC50 (Aromatase [1]): 5.64; pKi (Aromatase [2]): 6.77

Q: How did the pIC50 (Aromatase [1]) turn out when `CC(=O)OCC12CCCC=C1CCC1C2CCC2(C)C(O)CCC12` (centres undefined) was run?
A: 4.36

Q: `C[C@]12CCC(=O)C(O)=C1CC[C@@H]1[C@@H]2CC[C@]2(C)C(=O)CC[C@@H]12` [FORMESTANE] was tested. Which pIC50 (Aromatase [1]) did it give?
A: 6.39

Q: How did the pIC50 (Aromatase [1]) turn out when `CC(=O)OC1CCC2C3CCC4=CCCCC4(CO)C3CCC12C` (centres undefined) was run?
A: 4.00

Q: `C#CC(O)C12CCCC=C1CCC1C3CCC(=O)C3(C)CCC12` (centres undefined) was tested. Which pIC50 (Aromatase [1]) did it give?
A: 4.21

Q: And the pKi (Aromatase [2])?
A: 5.11

Q: With `CC(=O)OCC12CCCC=C1CCC1C2CCC2(C)C(OC(C)=O)CCC12` (centres undefined) as the compound, how does the pIC50 (Aromatase [1]) read?
A: 4.42

Q: `CC12CCCC=C1CCC1C2CCC2(C)C(O)CCC12` (centres undefined) was tested. Which pIC50 (Aromatase [1]) did it give?
A: 5.14

Q: And the pKi (Aromatase [2])?
A: 6.08

Q: Which results are given for `CC12CCC3C(CCC4=CCCCC43C)C1C[C@@H](Br)C2=O` (some centres undefined)?
A: pIC50 (Aromatase [1]): 5.39; pKi (Aromatase [2]): 6.64

Q: How did the pIC50 (Aromatase [1]) turn out when `C[C@]12CC[C@H]3[C@@H](CCC4=CCCC[C@@]43C(F)F)[C@@H]1CC[C@@H]2O` was run?
A: 4.59

Q: `CC12CCC3C(CCC4=CCCCC43C)C1C[C@H](Br)C2=O` (some centres undefined) was tested. Which pIC50 (Aromatase [1]) did it give?
A: 5.23

Q: What about the pKi (Aromatase [2]) of the same compound?
A: 6.34
